Among the data in PubChem BioAssay (NCI) are GI50 and TGI values, retold here.

Among the test systems are CAKI-1 renal; IGROV1 ovarian; T-47D breast; RXF 393 renal; SK-MEL-2 melanoma; COLO 205 colon; PC-3 prostate; HCC-2998 colon; 786-0 renal; RPMI-8226 leukemia.
What all share (experiment): inhibition of tumour cell growth, NCI panel, 48 h

Where “and” joins values, the source holds several entries; their conditions need not be identical. Equal entries are not always repeated.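 Cultured in 96-well plates, cells were exposed to test compound for 48 hours across five concentrations. The concentration for 50% growth inhibition is given as GI50. TGI: concentration producing complete growth inhibition.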 Some results are limits rather than exact numbers.

For the compound `COc1ccc(OCC(O)CN2CCN(c3ccc(Cl)cc3)CC2)cc1` (configuration not stated), the GI50 with CAKI-1 renal is 8860 nM; in the assay on IGROV1 ovarian it was 18.1 µM; with T-47D breast, greater than 100000 nM; in the assay on RXF 393 renal, 79100 nM; with SK-MEL-2 melanoma it was greater than 100 µM; with COLO 205 colon, greater than 100000 nM. The GI50 in the assay with PC-3 prostate, in the assay with HCC-2998 colon, in the assay on 786-0 renal and in the assay with RPMI-8226 leukemia was greater than 100000 nM in each case. Besides, the TGI in the assay with CAKI-1 renal, in the assay on IGROV1 ovarian, in the assay on T-47D breast, in the assay with RXF 393 renal, with SK-MEL-2 melanoma and with COLO 205 colon was greater than 100 µM each time. Moreover, the TGI in the assay on PC-3 prostate, in the assay on HCC-2998 colon, in the assay with 786-0 renal and in the assay with RPMI-8226 leukemia was greater than 100 µM each time.
Consider `C#CC#CC#CC#CC#CC#CC#CC#CC[C@@H]1OC[C@@H](COC(=O)O[C@@H](C(=O)O[C@H]2C[C@@]3(O)[C@@H](OC(=O)c4ccccc4)[C@@H]4[C@]5(OC(C)=O)CO[C@@H]5C[C@H](O)[C@@]4(C)C(=O)[C@H](OC(C)=O)C(=C2C)C3(C)C)[C@@H](NC(=O)c2ccccc2)c2ccccc2)O1`, for which the GI50 in the assay with CAKI-1 renal was 477 nM; in the assay with IGROV1 ovarian it was 0.404 µM; in the assay with T-47D breast, 335 nM; in the assay with RXF 393 renal, 471 nM; in the assay with SK-MEL-2 melanoma, 1.28 µM; with COLO 205 colon, 181 nM. Also, the GI50 is 345 nM in the assay on PC-3 prostate, 289 nM in the assay on HCC-2998 colon, 1090 nM in the assay on 786-0 renal and 109 nM in the assay on RPMI-8226 leukemia. The TGI in the assay on CAKI-1 renal was greater than 33.3 µM; with IGROV1 ovarian it was greater than 33.3 µM; in the assay with T-47D breast it was greater than 33.3 µM; in the assay with RXF 393 renal it was 2.39 µM; in the assay with SK-MEL-2 melanoma, greater than 33.3 µM; with COLO 205 colon it was greater than 33.3 µM. For the same compound, the TGI with PC-3 prostate is greater than 33.3 µM; in the assay with HCC-2998 colon it was greater than 17.5 µM; with 786-0 renal, greater than 33.3 µM; with RPMI-8226 leukemia, greater than 33.3 µM.
In the case of `Nc1nc(=S)c2[nH]cnc2[nH]1`, the GI50 in the assay on CAKI-1 renal was 264 nM and 345 nM and 888 nM; in the assay with IGROV1 ovarian, 3.23 µM and 6.02 µM; with T-47D breast, 430 nM and 964 nM and 1250 nM; in the assay on RXF 393 renal, 395 nM and 474 nM and 984 nM; in the assay on SK-MEL-2 melanoma, 0.741 µM and 1.7 µM and 3.7 µM; in the assay on COLO 205 colon, 998 nM and 2350 nM and 2520 nM. The GI50 with PC-3 prostate is 1280 nM and 3350 nM and 2830 nM; with HCC-2998 colon, 382 nM and 1190 nM; in the assay on 786-0 renal, 335 nM and 1450 nM and 1010 nM; with RPMI-8226 leukemia it was 255 nM and 1300 nM and 488 nM. For the same compound, the TGI with IGROV1 ovarian was > 96.1 µM and 150 µM and 162 µM; with COLO 205 colon, 5.68 µM [middle of 4 runs]; with PC-3 prostate, > 100 µM and 185 µM and > 250 µM; in the assay with HCC-2998 colon, 6.93 µM and 16.7 µM and 4.98 µM; in the assay on RPMI-8226 leukemia, 2.77 µM and 22.3 µM and 3 µM.
Consider `COC(=O)c1ccc2[nH]c(O)c(C(=Nc3ccc(N(C)C(=O)CN4CCN(C)CC4)cc3)c3ccccc3)c2c1`, for which the GI50 in the assay with CAKI-1 renal was 210 nM; in the assay with IGROV1 ovarian it was 0.297 µM; with T-47D breast it was 11900 nM; in the assay with RXF 393 renal, 422 nM; in the assay on SK-MEL-2 melanoma it was 1.17 µM; in the assay on COLO 205 colon, 700 nM. Further, the GI50 in the assay on PC-3 prostate was 1040 nM; with HCC-2998 colon, 3890 nM; with 786-0 renal, 1070 nM; in the assay on RPMI-8226 leukemia it was 1920 nM. Also, the TGI in the assay on CAKI-1 renal worked out at 1.25 µM; with IGROV1 ovarian it was 1.83 µM; in the assay on T-47D breast it was 33.4 µM; in the assay with RXF 393 renal, 1.69 µM; with SK-MEL-2 melanoma, 3.54 µM; with COLO 205 colon it was 2.45 µM. Besides, the TGI in the assay with PC-3 prostate amounted to 25.5 µM; with HCC-2998 colon it was 18.2 µM; with 786-0 renal, 2.83 µM; in the assay on RPMI-8226 leukemia it was 8.34 µM.
Take `Cn1ccnc1C(=O)/C=C/c1ccc(C(=O)Nc2c(F)c(F)c(F)c(F)c2F)cc1`: the GI50 in the assay with CAKI-1 renal was 1530 nM; in the assay on IGROV1 ovarian, 1.75 µM; in the assay with T-47D breast, 1290 nM; in the assay with RXF 393 renal, 1660 nM; with SK-MEL-2 melanoma, 2.18 µM; in the assay with COLO 205 colon it was 1820 nM. Also, the GI50 is 1620 nM in the assay with PC-3 prostate, 1640 nM with HCC-2998 colon, 1830 nM in the assay on 786-0 renal and 505 nM in the assay with RPMI-8226 leukemia. Also, the TGI in the assay with CAKI-1 renal turned out to be 3.11 µM; in the assay with IGROV1 ovarian, 3.98 µM; with T-47D breast, 3.4 µM; in the assay with RXF 393 renal, 3.22 µM; in the assay with SK-MEL-2 melanoma, 5.6 µM; with COLO 205 colon, 3.63 µM. In addition, the TGI in the assay with PC-3 prostate turned out to be 6.54 µM; in the assay on HCC-2998 colon, 3.14 µM; in the assay with 786-0 renal, 3.62 µM; with RPMI-8226 leukemia it was 2.54 µM.
Regarding `CCCCCCCCCCCCOC1C(C(CC(=O)N2CCN(Cc3ccc4c(c3)OCO4)CC2)NS(=O)(=O)c2cc(Cl)cc(Cl)c2)OC2OC(C)(C)OC21` (configuration not stated), the GI50 was greater than 100000 nM with CAKI-1 renal; 14 µM in the assay on IGROV1 ovarian; 28900 nM in the assay with T-47D breast; 6430 nM with RXF 393 renal; 47.9 µM with SK-MEL-2 melanoma; 11700 nM in the assay with COLO 205 colon. Moreover, the GI50 in the assay on PC-3 prostate was 4040 nM; in the assay with HCC-2998 colon, 5540 nM; with 786-0 renal, 20400 nM; in the assay with RPMI-8226 leukemia, 3790 nM. The TGI in the assay on CAKI-1 renal is greater than 100 µM; with IGROV1 ovarian, greater than 100 µM; in the assay on T-47D breast, greater than 100 µM; in the assay with RXF 393 renal, 28.1 µM; in the assay with SK-MEL-2 melanoma it was greater than 100 µM; in the assay with COLO 205 colon it was greater than 78.3 µM. For the same compound, the TGI was greater than 100 µM with PC-3 prostate, greater than 51.4 µM in the assay on HCC-2998 colon, greater than 86.5 µM with 786-0 renal and greater than 47.5 µM in the assay on RPMI-8226 leukemia.
Turning to `O=NN(CCCl)C(=O)NC1CCCCC1`, the GI50 in the assay on CAKI-1 renal is 22900 nM and 30500 nM and 60500 nM; with IGROV1 ovarian, 19.7 µM and 73.2 µM; in the assay with RXF 393 renal, 18100 nM and 76400 nM; in the assay on SK-MEL-2 melanoma it was 22.7 µM and 194 µM; with COLO 205 colon it was 20300 nM and 57100 nM; in the assay on HCC-2998 colon, 34500 nM and 64600 nM. Also, the GI50 in the assay on 786-0 renal was 32000 nM; with RPMI-8226 leukemia it was 27100 nM. In addition, the TGI with CAKI-1 renal was 41.7 µM and 101 µM and 142 µM; in the assay on IGROV1 ovarian, 57.4 µM and 150 µM and 162 µM; with T-47D breast, 166 µM; in the assay with RXF 393 renal it was 32.9 µM and 102 µM and 143 µM; with SK-MEL-2 melanoma it was 49.4 µM and 159 µM and 272 µM; with COLO 205 colon, 36.7 µM and 102 µM and 87.8 µM. Besides, the TGI with PC-3 prostate is 136 µM; in the assay with HCC-2998 colon, 123 µM and 101 µM; in the assay with 786-0 renal, 33.9 µM and 65.9 µM and 68.6 µM; in the assay with RPMI-8226 leukemia, 40.8 µM and 122 µM and 73.9 µM.
For `CCN(CC)CCOc1ccc2c(C)c(C(=O)OC)oc2c1C(=O)/C=C/c1ccc(OC)cc1`, the GI50 in the assay with CAKI-1 renal is 3820 nM; in the assay with IGROV1 ovarian, 0.246 µM; in the assay with T-47D breast, 12900 nM; in the assay with RXF 393 renal, 13800 nM; in the assay with SK-MEL-2 melanoma, 9.99 µM; in the assay with COLO 205 colon it was 4030 nM. Further, the GI50 is 2010 nM in the assay on PC-3 prostate, 1860 nM with HCC-2998 colon, 16600 nM with 786-0 renal and 1580 nM in the assay with RPMI-8226 leukemia. The TGI with CAKI-1 renal is 10.7 µM; in the assay on IGROV1 ovarian, 2.75 µM; with T-47D breast, 38.5 µM; in the assay with RXF 393 renal, 31.3 µM; with SK-MEL-2 melanoma it was greater than 23.2 µM; with PC-3 prostate it was 5.46 µM. For the same compound, the TGI with HCC-2998 colon was 3.72 µM; with 786-0 renal, greater than 45.7 µM; with RPMI-8226 leukemia, 4.42 µM.
As for `COc1cccc(C2C(C#N)=C(N)Oc3cc4c(cc32)OCO4)c1` (configuration not stated), the GI50 in the assay with CAKI-1 renal is 40.9 nM; in the assay on IGROV1 ovarian, 0.305 µM; in the assay with T-47D breast, 50.2 nM; in the assay on RXF 393 renal it was 29 nM; in the assay on SK-MEL-2 melanoma, 0.0301 µM; in the assay with COLO 205 colon, 49.2 nM. For the same compound, the GI50 in the assay with PC-3 prostate was 53.4 nM; with HCC-2998 colon, 81.3 nM; in the assay on 786-0 renal, 62.1 nM; in the assay with RPMI-8226 leukemia it was 82.8 nM. For the same compound, the TGI amounted to 42.6 µM in the assay with CAKI-1 renal; 30.8 µM in the assay on IGROV1 ovarian; 28 µM in the assay on T-47D breast; 0.0927 µM in the assay with RXF 393 renal; 6.77 µM with SK-MEL-2 melanoma; 0.325 µM in the assay on COLO 205 colon. Besides, the TGI in the assay with PC-3 prostate came to 39.5 µM; in the assay with HCC-2998 colon, 2.52 µM; in the assay on 786-0 renal, 24.1 µM; with RPMI-8226 leukemia, 29.9 µM.
For `C=CCN=C(N/N=C/c1ccc([N+](=O)[O-])o1)NS(=O)(=O)c1cc(C(=O)Nc2ccccc2)c(Cl)cc1SCC(N)=O`, the GI50 is greater than 100000 nM in the assay on CAKI-1 renal; 32.2 µM in the assay on IGROV1 ovarian; 23100 nM with T-47D breast; 24800 nM in the assay with RXF 393 renal; 16.1 µM in the assay on SK-MEL-2 melanoma; 6550 nM in the assay on COLO 205 colon. In addition, the GI50 was 33000 nM in the assay on PC-3 prostate, 20700 nM in the assay on HCC-2998 colon, 63700 nM in the assay with 786-0 renal and 20400 nM with RPMI-8226 leukemia. Also, the TGI in the assay with CAKI-1 renal is greater than 100 µM; with IGROV1 ovarian, 97.3 µM; in the assay on T-47D breast, greater than 100 µM; with RXF 393 renal it was greater than 100 µM; in the assay on SK-MEL-2 melanoma it was 45.3 µM; in the assay with COLO 205 colon it was greater than 100 µM. In addition, the TGI with PC-3 prostate was greater than 100 µM; in the assay with HCC-2998 colon, 40.6 µM; with 786-0 renal it was greater than 100 µM; with RPMI-8226 leukemia, 55.1 µM.
For `CN(C)c1ccc(C2CC(C)(O)Oc3cc4c(cc32)OCO4)cc1` (configuration not stated), the TGI in the assay with CAKI-1 renal is greater than 100 µM; in the assay on IGROV1 ovarian it was greater than 100 µM; with T-47D breast, greater than 100 µM; in the assay with RXF 393 renal, greater than 100 µM; with SK-MEL-2 melanoma it was 63.8 µM; in the assay on COLO 205 colon it was 50.3 µM. For the same compound, the TGI was greater than 100 µM with PC-3 prostate, 95.1 µM in the assay with HCC-2998 colon, greater than 100 µM in the assay on 786-0 renal and 47.6 µM with RPMI-8226 leukemia.
